The assay deals with P388 leukemia ip, CD2F1 mice, survival T/C. In words: NCI In Vivo Anticancer Drug Screen. Data for tumor model P388 Leukemia (intraperitoneal) in CD2F1 (CDF1) mice. As to conditions: endpoint: median survival time, higher = longer survival. The procedure, abridged:
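Mice carrying the transplanted tumor received test compound or vehicle. Survival was recorded in each group, and the value is the treated-group measurement divided by that of the vehicle-treated control group.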

[1] abbreviates: dose: 50.0 mg/kg/injection, schedule: Q01DX005 (ip), vehicle: saline with Tween-80.
Where [2] appears, read: dose: 100.0 mg/kg/injection, schedule: Q01DX005 (ip), vehicle: saline with Tween-80.
Setting [3] is: dose: 200.0 mg/kg/injection, schedule: Q01DX005 (ip), vehicle: saline with Tween-80.
[4] abbreviates: dose: 60.0 mg/kg/injection, schedule: Q01DX005 (ip), vehicle: saline with Tween-80.
Where [5] appears, read: dose: 120.0 mg/kg/injection, schedule: Q01DX005 (ip), vehicle: saline with Tween-80.
The mark [6] stands for this setting: dose: 50.0 mg/kg/injection, schedule: Q01DX005 (ip), vehicle: Klucel (hydroxypropylcellulose) (HPC).
Where [7] appears, read: dose: 50.0 mg/kg/injection, schedule: Q01DX005 (ip), vehicle: saline.
The mark [8] stands for this setting: dose: 50.0 mg/kg/injection, schedule: Q01DX009 (ip), vehicle: saline with Tween-80.
[9] abbreviates: dose: 100.0 mg/kg/injection, schedule: Q01DX009 (ip), vehicle: saline with Tween-80.
Where [10] appears, read: dose: 200.0 mg/kg/injection, schedule: Q01DX009 (ip), vehicle: saline with Tween-80.
The mark [11] stands for this setting: dose: 240.0 mg/kg/injection, schedule: Q01DX005 (ip), vehicle: saline with Tween-80.
[12] abbreviates: dose: 25.0 mg/kg/injection, schedule: Q01DX009 (ip), vehicle: Klucel (hydroxypropylcellulose) (HPC).
[13] abbreviates: dose: 50.0 mg/kg/injection, schedule: Q01DX009 (ip), vehicle: Klucel (hydroxypropylcellulose) (HPC).
Setting [14] is: dose: 100.0 mg/kg/injection, schedule: Q01DX009 (ip), vehicle: saline.
Where [15] appears, read: dose: 200.0 mg/kg/injection, schedule: Q01DX009 (ip), vehicle: saline.

Where “and” joins values, the source holds several entries; their conditions need not be identical. Equal values may be shown once. Inconclusive results and toxic doses are left out.

Take `NC(=O)N=Nc1cccc(Cl)c1`: the T/C under setting [1] was 98 % of control, the T/C under setting [2] is 104 % of control and the T/C under setting [3] was 104 % of control.

For `N#CC(C(=O)C(=O)Nc1ccc(Cl)cc1Cl)c1c(Cl)cccc1Cl` (stereo not given), the T/C runs as follows: under setting [4], 100 % of control; under setting [5], 101 % of control.

For `O=C1C(=C(Cl)Cl)C(=O)c2ccccc21`, the T/C runs as follows: (dose: 12.5 mg/kg/injection, schedule: Q01DX005 (ip), vehicle: saline) 103 % of control; (dose: 25.0 mg/kg/injection, schedule: Q01DX005 (ip), vehicle: saline) 100 % of control; under setting [6], 91 % of control; under setting [7], 95 % of control.

As for `CCN(c1ccccc1)c1nsc(Cl)n1`, the T/C under setting [8] is 101 % of control, the T/C under setting [9] is 104 % of control and the T/C under setting [10] is 104 % of control.

For `CCCCCCCCCCCCCCCCCCOC(=O)C1CCCN1` (stereo not given), the T/C reads like this: (dose: 100.0 mg/kg/injection, schedule: Q04DX002 (ip), vehicle: Klucel (hydroxypropylcellulose) (HPC)) 101 % of control; (dose: 200.0 mg/kg/injection, schedule: Q04DX002 (ip), vehicle: Klucel (hydroxypropylcellulose) (HPC)) 99 % of control; (dose: 400.0 mg/kg/injection, schedule: Q04DX002 (ip), vehicle: Klucel (hydroxypropylcellulose) (HPC)) 94 % of control.

For the compound `CCCCCCC(=O)/C=C/c1ccc(F)cc1`, the T/C under setting [1] was 101 % of control, the T/C under setting [2] was 106 % of control and the T/C under setting [3] is 100 % of control.

`O=C1CCCC2=C1C(c1ccc(Cl)c(Cl)c1)C1=C(CCCC1=O)O2`: the T/C is 95 % of control under setting [4], 95 % of control under setting [5] and 94 % of control under setting [11].

Consider `O=NNc1ccc2cccnc2n1`, for which the T/C by setting is: (dose: 3.12 mg/kg/injection, schedule: Q01DX009 (ip), vehicle: water) 99 % of control and 115 % of control; (dose: 6.25 mg/kg/injection, schedule: Q01DX009 (ip), vehicle: water) 116 % of control and 123 % of control; (dose: 25.0 mg/kg/injection, schedule: Q01DX009 (ip), vehicle: water) 150 % of control; (dose: 50.0 mg/kg/injection, schedule: Q01DX009 (ip), vehicle: water) 187 % of control and 206 % of control.

On to `CC(=O)Oc1ccc(N=Cc2cc3c(cc2[N+](=O)[O-])OCO3)cc1`, for which the T/C is 113 % of control (dose: 12.5 mg/kg/injection, schedule: Q01DX009 (ip), vehicle: other); 117 % of control (dose: 25.0 mg/kg/injection, schedule: Q01DX009 (ip), vehicle: other); 109 % of control (dose: 50.0 mg/kg/injection, schedule: Q01DX009 (ip), vehicle: other); 93 % of control (dose: 100.0 mg/kg/injection, schedule: Q01DX009 (ip), vehicle: other); 92 % of control (dose: 200.0 mg/kg/injection, schedule: Q01DX009 (ip), vehicle: other); 96 % of control (dose: 400.0 mg/kg/injection, schedule: Q01DX009 (ip), vehicle: other).

With `CCOC(=O)C(=CNc1cc(OC(C)=O)ccc1C)C(=O)OCC`, the T/C under setting [6] was 110 % of control; the T/C (dose: 100.0 mg/kg/injection, schedule: Q01DX005 (ip), vehicle: Klucel (hydroxypropylcellulose) (HPC)) is 100 % of control; the T/C (dose: 200.0 mg/kg/injection, schedule: Q01DX005 (ip), vehicle: Klucel (hydroxypropylcellulose) (HPC)) was 96 % of control.

For `COc1ccc(NC2=NC(C)(CO)CS2)cc1` (stereo not given), the T/C under setting [8] is 116 % of control, the T/C under setting [9] is 96 % of control and the T/C under setting [10] was 107 % of control.

`CCCCCCCCSc1nc2ccc(N=Cc3ccccc3O)cc2s1`: the T/C (dose: 12.5 mg/kg/injection, schedule: Q01DX009 (ip), vehicle: Klucel (hydroxypropylcellulose) (HPC)) was 109 % of control; the T/C under setting [12] was 94 % of control; the T/C under setting [13] is 90 % of control and 92 % of control; the T/C (dose: 200.0 mg/kg/injection, schedule: Q01DX009 (ip), vehicle: Klucel (hydroxypropylcellulose) (HPC)) was 91 % of control.

With `COc1ccc(C(=O)C(CN2CCCC2)CN2CCCC2)cc1`, the T/C reads like this: (dose: 7.5 mg/kg/injection, schedule: Q01DX005 (ip), vehicle: saline) 111 % of control; (dose: 7.5 mg/kg/injection, schedule: Q01DX009 (ip), vehicle: saline) 112 % of control; (dose: 15.0 mg/kg/injection, schedule: Q01DX004 (ip), vehicle: saline) 122 % of control; (dose: 15.0 mg/kg/injection, schedule: Q01DX005 (ip), vehicle: saline) 121 % of control; (dose: 15.0 mg/kg/injection, schedule: Q01DX009 (ip), vehicle: saline) 123 % of control; (dose: 30.0 mg/kg/injection, schedule: Q01DX004 (ip), vehicle: saline) 115 % of control. Moreover, under “dose: 60.0 mg/kg/injection, schedule: Q01DX004 (ip), vehicle: saline”, the T/C was 108 % of control.

Consider `Cc1cc(C)nc(NS(=O)(=O)c2ccc(N=c3c4ccccc4n(C)c4ccccc34)cc2)n1`, for which the T/C reads like this: under setting [1], 90 % of control; under setting [2], 97 % of control; under setting [3], 90 % of control.

With `Sc1ccccc1.[Ag]`, the T/C reads like this: (dose: 25.0 mg/kg/injection, schedule: Q01DX009 (ip), vehicle: saline with Tween-80) 97 % of control; under setting [8], 105 % of control; under setting [9], 96 % of control.

As for `CCCCOC(=O)c1ccc2nc(NC(=O)OC)[nH]c2c1`, the T/C is, setting by setting: (dose: 100.0 mg/kg/injection, schedule: Q04DX002 (ip), vehicle: saline with Tween-80) 100 % of control; (dose: 200.0 mg/kg/injection, schedule: Q04DX002 (ip), vehicle: saline with Tween-80) 90 % of control; (dose: 400.0 mg/kg/injection, schedule: Q04DX002 (ip), vehicle: saline with Tween-80) 91 % of control.

For the compound `CC(=O)C1CCC=C2C1CC1CC2C1(C)C` (stereo not given), the T/C was 100 % of control under setting [12]; 100 % of control under setting [13]; 104 % of control (dose: 100.0 mg/kg/injection, schedule: Q01DX009 (ip), vehicle: Klucel (hydroxypropylcellulose) (HPC)).

For the compound `CCCCCCCCCCCCCCCCS(=O)(=O)c1ccc(S(=O)(=O)F)cc1NC(C)=O`, the T/C was 104 % of control (dose: 50.0 mg/kg/injection, schedule: Q04DX003 (ip), vehicle: saline sonified); 95 % of control (dose: 100.0 mg/kg/injection, schedule: Q04DX003 (ip), vehicle: saline sonified); 100 % of control (dose: 200.0 mg/kg/injection, schedule: Q04DX003 (ip), vehicle: saline sonified).

In the case of `NCCSCCO`, the T/C was 98 % of control under setting [7]; 100 % of control (dose: 100.0 mg/kg/injection, schedule: Q01DX005 (ip), vehicle: saline); 99 % of control (dose: 200.0 mg/kg/injection, schedule: Q01DX005 (ip), vehicle: saline).

Take `COc1ccc(/C(C#N)=C\c2ccco2)cc1`: the T/C is, setting by setting: (dose: 50.0 mg/kg/injection, schedule: Q01DX009 (ip), vehicle: saline) 111 % of control; under setting [14], 110 % of control; under setting [15], 101 % of control.

As to `O=C1C(=O)C2CC3(CC1N2Cc1ccccc1)OCCO3`, the T/C is, setting by setting: (dose: 8.75 mg/kg/injection, schedule: Q01DX005 (ip), vehicle: Klucel (hydroxypropylcellulose) (HPC)) 109 % of control; (dose: 17.5 mg/kg/injection, schedule: Q01DX005 (ip), vehicle: Klucel (hydroxypropylcellulose) (HPC)) 104 % of control; (dose: 35.0 mg/kg/injection, schedule: Q01DX005 (ip), vehicle: Klucel (hydroxypropylcellulose) (HPC)) 110 % of control.

As for `CC(C)(C)OC(=O)NCC(=O)NNC(=O)OC(C)(C)C`, the T/C reads like this: under setting [14], 118 % of control; under setting [15], 118 % of control; (dose: 400.0 mg/kg/injection, schedule: Q01DX009 (ip), vehicle: saline) 118 % of control.

`Clc1ncccc1SSc1cccnc1Cl`: the T/C was 104 % of control under setting [8], 100 % of control under setting [9] and 104 % of control under setting [10].

As for `CCOC(=O)CCN(CC1CC=CCC1)c1cc(O)c2c(c1O)C(=O)c1ccccc1C2=O` (stereo not given), the T/C is, setting by setting: (dose: 25.0 mg/kg/injection, schedule: Q01DX005 (ip), vehicle: saline with Tween-80) 91 % of control; under setting [1], 92 % of control; under setting [2], 90 % of control; under setting [3], 92 % of control.

`COC(=O)c1cc2c(nn1)C(=O)Nc1ccccc1C2(C)C`: the T/C is 100 % of control under setting [4], 105 % of control under setting [5] and 96 % of control under setting [11].

Source of the values: PubChem BioAssay AID330 (DTP/NCI, 2004).
